Patent publication US12398154B2, “Azaquinazoline pan-KRas inhibitors” (Mirati Therapeutics, Inc., priority 2020, dated 2025)

What was measured:
Test in all cases: biochemical
[1] = target: KRas G12R (Homo sapiens, UniProt P01116, G12R);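 also: TR-FRET displacement assay of compound binding to KRas, read after one hour at room temperature, potency from a four-parameter fit of percent-of-control values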
Description: (§1) The ability of a compound to bind to KRas was measured using a TR-FRET displacement assay. […] After a 60-minute incubation at room temperature, the reaction was measured using a BMG LABTECH CLARIO star Plus via TR-FRET. […] The POC values were fit to a 4-parameter IC50 equation and the IC50 value reported.

[2] = target: KRas G12V (Homo sapiens, UniProt P01116, G12V);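 also: KRas binding measured by TR-FRET displacement at room temperature, IC50 fitted from percent of control values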
Description: as §1

[3] = target: KRas G12D (Homo sapiens, UniProt P01116, G12D);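 also: TR-FRET displacement binding assay on KRas, read after a one-hour incubation at room temperature, IC50 fitted from percent-of-control values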
Sequence of KRas G12D (P01116 1-169 isoform P01116-2 G12D): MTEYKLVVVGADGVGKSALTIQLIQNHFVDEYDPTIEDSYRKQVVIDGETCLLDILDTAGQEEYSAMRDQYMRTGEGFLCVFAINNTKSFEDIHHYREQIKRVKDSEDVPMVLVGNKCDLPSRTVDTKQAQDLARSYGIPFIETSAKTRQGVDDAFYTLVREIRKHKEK
Description: as §1

Sequence of KRas G12R (P01116 1-169 isoform P01116-2 G12R): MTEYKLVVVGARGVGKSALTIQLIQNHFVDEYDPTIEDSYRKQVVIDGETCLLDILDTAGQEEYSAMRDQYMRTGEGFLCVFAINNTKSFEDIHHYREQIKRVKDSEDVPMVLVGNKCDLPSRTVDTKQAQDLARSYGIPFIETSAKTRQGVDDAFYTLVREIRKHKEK
Sequence of KRas G12V (P01116 1-169 isoform P01116-2 G12V): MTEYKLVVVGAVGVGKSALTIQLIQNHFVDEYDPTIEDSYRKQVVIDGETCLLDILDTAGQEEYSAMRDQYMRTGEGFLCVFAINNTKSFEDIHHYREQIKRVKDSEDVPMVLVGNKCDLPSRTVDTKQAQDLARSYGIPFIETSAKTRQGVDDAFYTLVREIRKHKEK

| SMILES | IC50 [1] | IC50 [2] | IC50 [3] |
| --- | --- | --- | --- |
| CC1(O)CCCN(c2nc(OCC34CCCN3CCC4)nc3c(F)c(-c4cccc5scnc45)ncc23)C1 (centres unmarked) [Example 68, 1-(7-(benzo[d]thiazol-4-yl)-8-fluoro-2-((hexahydro-1H-pyrrolizin-7a-yl)methoxy)pyrido[4,3-d]pyrimidin-4-yl)-3-methylpiperidin-3-ol] | 27.6 µM | 17 µM | 11.6 µM |
| CC1(O)CCCN(c2nc(OCC34CCCN3CCC4)nc3c(F)c(-c4cc(O)ccc4F)ncc23)C1 (centres unmarked) [Example 429, 1-(8-fluoro-7-(2-fluoro-5-hydroxyphenyl)-2-((tetrahydro-1H-pyrrolizin-7a(5H)-yl)methoxy)pyrido[4,3-d]pyrimidin-4-yl)-3-methylpiperidin-3-ol] | 8.25 µM | 4.44 µM | 2.46 µM |
| NS(=O)(=O)CC1CCCN(c2nc(OCC34CCCN3CCC4)nc3c(F)c(-c4cccc5cccc(C(F)(F)F)c45)ncc23)C1 (centres unmarked) [Example 465, 1-(1-(8-fluoro-2-((hexahydro-1H-pyrrolizin-7a-yl)methoxy)-7-(8-(trifluoromethyl)naphthalen-1-yl)pyrido[4,3-d]pyrimidin-4-yl)piperidin-3-yl)methanesulfonamide] | 10.1 µM | 6.1 µM | 15.6 µM |
| Fc1c(-c2cccc3cccc(F)c23)ncc2c(N3CCCn4nccc4C3)nc(OCC34CCCN3CCC4)nc12 [Example 245, 4-(7,8-dihydro-4H-pyrazolo[1,5-a][1,4]diazepin-5(6H)-yl)-8-fluoro-7-(8-fluoronaphthalen-1-yl)-2-((hexahydro-1H-pyrrolizin-7a-yl)methoxy)pyrido[4,3-d]pyrimidine] | 9.83 µM | 11.7 µM | 2.99 µM |
| O=C1CC2CCN(c3nc(OCC45CCCN4CCC5)nc4c(F)c(-c5cccc6cccc(F)c56)ncc34)CC2C(=O)N1 (centres unmarked) [Example 335, 7-(8-fluoro-7-(8-fluoronaphthalen-1-yl)-2-((hexahydro-1H-pyrrolizin-7a-yl)methoxy)pyrido[4,3-d]pyrimidin-4-yl)hexahydro-2,7-naphthyridine-1,3(2H,4H)-dione] | 84.5 µM | ≥ 100 µM | 7.83 µM |
| Cc1cc2sc(N)nc2c(-c2ncc3c(N4CCCC(C)(O)C4)nc(OC[C@@]45CCCN4C[C@H](F)C5)nc3c2F)c1C (stereo partly drawn) [Example 39, 1-(7-(2-amino-5,6-dimethylbenzo[d]thiazol-4-yl)-8-fluoro-2-(((2R,7aS)-2-fluorotetrahydro-1H-pyrrolizin-7a(5H)-yl)methoxy)pyrido[4,3-d]pyrimidin-4-yl)-3-methylpiperidin-3-ol] | 19.8 µM | 25.5 µM | 12.5 µM |
| Fc1c(-c2cccc3cccc(F)c23)ncc2c(N3CCCOCC3)nc(OCC34CCCN3CCC4)nc12 [Example 42, 4-(8-fluoro-7-(8-fluoronaphthalen-1-yl)-2-((hexahydro-1H-pyrrolizin-7a-yl)methoxy)pyrido[4,3-d]pyrimidin-4-yl)-1,4-oxazepane] | 3.09 µM | 1.61 µM | 1.86 µM |
| Fc1c(-c2cccc3cccc(Cl)c23)ncc2c(N3CCCC(c4c[nH]nn4)C3)nc(OCC34CCCN3CCC4)nc12 (centres unmarked) [Example 108, 4-(3-(1H-1,2,3-triazol-4-yl)piperidin-1-yl)-7-(8-chloronaphthalen-1-yl)-8-fluoro-2-((tetrahydro-1H-pyrrolizin-7a(5H)-yl)methoxy)pyrido[4,3-d]pyrimidine] | 4.19 µM | 8.1 µM | 19.7 µM |
| C[C@H]1C[C@@H](O)CN(c2nc(OCC34CCCN3CCC4)nc3c(F)c(-c4cccc5cccc(F)c45)ncc23)C1 [Example 33, (3R,5S)-1-(8-fluoro-7-(8-fluoronaphthalen-1-yl)-2-((hexahydro-1H-pyrrolizin-7a-yl)methoxy)pyrido[4,3-d]pyrimidin-4-yl)-5-methylpiperidin-3-ol] | 10 µM | 6.61 µM | 6.37 µM |
| CCc1cccc2cccc(-c3ncc4c(N5CCCOCC5)nc(OCC56CCCN5CCC6)nc4c3F)c12 [Example 334, 4-(7-(8-ethylnaphthalen-1-yl)-8-fluoro-2-((hexahydro-1H-pyrrolizin-7a-yl)methoxy)pyrido[4,3-d]pyrimidin-4-yl)-1,4-oxazepane] | 0.738 µM | 0.699 µM | 1.48 µM |
| N#Cc1cccc2cccc(-c3ncc4c(N5CCCC(c6nc[nH]n6)C5)nc(OCC56CCCN5CCC6)nc4c3F)c12 (centres unmarked) [Example 456, 8-(4-(3-(1H-1,2,4-triazol-3-yl)piperidin-1-yl)-8-fluoro-2-((hexahydro-1H-pyrrolizin-7a-yl)methoxy)pyrido[4,3-d]pyrimidin-7-yl)-1-naphthonitrile] | 6.37 µM | 10.7 µM | 48.8 µM |
| OC1CN(c2nc(OCC34CCCN3CCC4)nc3c(F)c(-c4cccc5cccc(F)c45)ncc23)Cc2ccnn2C1 (centres unmarked) [Example 255, 5-(8-fluoro-7-(8-fluoronaphthalen-1-yl)-2-((hexahydro-1H-pyrrolizin-7a-yl)methoxy)pyrido[4,3-d]pyrimidin-4-yl)-5,6,7,8-tetrahydro-4H-pyrazolo[1,5-a][1,4]diazepin-7-ol] | 15.1 µM | 11 µM | 6.23 µM |
| Fc1c(-c2cccc3cccc(F)c23)ncc2c(N3CCOCC3)nc(OCC34CCCN3CCC4)nc12 [Example 49, 4-(8-fluoro-7-(8-fluoronaphthalen-1-yl)-2-((tetrahydro-1H-pyrrolizin-7a(5H)-yl)methoxy)pyrido[4,3-d]pyrimidin-4-yl)morpholine] | 18.9 µM | 27.9 µM | 70 µM |
| Cc1cc2n(n1)CCCN(c1nc(OCC34CCCN3CCC4)nc3c(F)c(-c4cccc5cccc(F)c45)ncc13)C2 [Example 254, 8-fluoro-7-(8-fluoronaphthalen-1-yl)-2-((hexahydro-1H-pyrrolizin-7a-yl)methoxy)-4-(2-methyl-7,8-dihydro-4H-pyrazolo[1,5-a][1,4]diazepin-5(6H)-yl)pyrido[4,3-d]pyrimidine] | 7.91 µM | 10.8 µM | 2.84 µM |
| CC1(O)CCCN(c2nc(OCC34CCCN3CCC4)nc3c(F)c(-c4cc(O)cc5ccccc45)ncc23)C1 (centres unmarked) [Example 151] | 0.009 µM | 0.008 µM | 0.012 µM |
| CC1(CNc2nc(OCC34CCCN3CCC4)nc3c(F)c(-c4cccc5cccc(F)c45)ncc23)CCC1 [Example 19, 8-fluoro-7-(8-fluoronaphthalen-1-yl)-2-((hexahydro-1H-pyrrolizin-7a-yl)methoxy)-N-((1-methylcyclobutyl)methyl)pyrido[4,3-d]pyrimidin-4-amine] | 84.3 µM | 64.5 µM | ≥ 100 µM |
| OC1CCCN(c2nc(OCC34CCCN3CCC4)nc3c(F)c(-c4cccc5cccc(F)c45)ncc23)CC1 (centres unmarked) [Example 8, 1-(8-fluoro-7-(8-fluoronaphthalen-1-yl)-2-((hexahydro-1H-pyrrolizin-7a-yl)methoxy)pyrido[4,3-d]pyrimidin-4-yl)azepan-4-ol] | 5.41 µM | 2.63 µM | 2.24 µM |
| O=C1CC2(CCCN(c3nc(OCC45CCCN4CCC5)nc4c(F)c(-c5cccc6cccc(Cl)c56)ncc34)C2)CN1 (centres unmarked) [Example 2, 7-(7-(8-chloronaphthalen-1-yl)-8-fluoro-2-((tetrahydro-1H-pyrrolizin-7a(5H)-yl)methoxy)pyrido[4,3-d]pyrimidin-4-yl)-2,7-diazaspiro[4.5]decan-3-one] | 2.18 µM | 1.01 µM | 0.632 µM |
| CC1(O)CCCN(c2nc(OCC34CCCN3CCC4)nc3c(F)c(-c4cccc5cccnc45)ncc23)C1 (centres unmarked) [Example 66] | 67.8 µM | 44.5 µM | 26.9 µM |
| OC1CCCCN(c2nc(OCC34CCCN3CCC4)nc3c(F)c(-c4cccc5cccc(F)c45)ncc23)C1 (centres unmarked) [Example 44, 1-(8-fluoro-7-(8-fluoronaphthalen-1-yl)-2-((hexahydro-1H-pyrrolizin-7a-yl)methoxy)pyrido[4,3-d]pyrimidin-4-yl)azepan-3-ol] | 6.24 µM | 2.99 µM | 3.23 µM |
| OC1CC2CC(C1)N(c1nc(OCC34CCCN3CCC4)nc3c(F)c(-c4cccc5cccc(F)c45)ncc13)C2 (centres unmarked) [Example 76, 6-(8-fluoro-7-(8-fluoronaphthalen-1-yl)-2-((hexahydro-1H-pyrrolizin-7a-yl)methoxy)pyrido[4,3-d]pyrimidin-4-yl)-6-azabicyclo[3.2.1]octan-3-ol] | 8.87 µM | 3.15 µM | 15.5 µM |
| Nc1n[nH]c(CCNc2nc(OCC34CCCN3CCC4)nc3c(F)c(-c4cccc5cccc(F)c45)ncc23)n1 [Example 238, N-(2-(3-amino-1H-1,2,4-triazol-5-yl)ethyl)-8-fluoro-7-(8-fluoronaphthalen-1-yl)-2-((hexahydro-1H-pyrrolizin-7a-yl)methoxy)pyrido[4,3-d]pyrimidin-4-amine] | 9.18 µM | 19.3 µM | ≥ 100 µM |
| O=C1NCC2(CCCN(c3nc(OCC45CCCN4CCC5)nc4c(F)c(-c5cccc6cccc(F)c56)ncc34)C2)N1 (centres unmarked) [Example 45, 7-(8-fluoro-7-(8-fluoronaphthalen-1-yl)-2-((hexahydro-1H-pyrrolizin-7a-yl)methoxy)pyrido[4,3-d]pyrimidin-4-yl)-1,3,7-triazaspiro[4.5]decan-2-one] | 0.362 µM | 0.189 µM | 0.089 µM |
| O=C1CCN(c2nc(OCC34CCCN3CCC4)nc3c(F)c(-c4cccc5cccc(F)c45)ncc23)CCCN1 [Example 3, 5-(8-fluoro-7-(8-fluoronaphthalen-1-yl)-2-((hexahydro-1H-pyrrolizin-7a-yl)methoxy)pyrido[4,3-d]pyrimidin-4-yl)-1,5-diazocan-2-one] | 20.4 µM | 11.7 µM | 8.18 µM |
| Fc1c(-c2cccc3cccc(F)c23)ncc2c(N3CCCC4CC43)nc(OCC34CCCN3CCC4)nc12 (centres unmarked) [Example 31, 4-(2-azabicyclo[4.1.0]heptan-2-yl)-8-fluoro-7-(8-fluoronaphthalen-1-yl)-2-((hexahydro-1H-pyrrolizin-7a-yl)methoxy)pyrido[4,3-d]pyrimidine] | 12.8 µM | 13.2 µM | – |
